Data on 7 compounds can be found in patent US9581577B2, “Miniaturized flow-through cell” (NATIONAL UNIVERSITY OF SINGAPORE, priority 2012, dated 2017).

Data set [1] is described as follows: Permeation across rat abdominal skin in horizontal diffusion cell (HDC). The class given is in vitro ADME. The method, then: To evaluate the performance characteristics of the MFtC 5, permeation of model compounds (rhodamine B and mangostin) using a horizontal diffusion cell (TK-6H1, Shanghai Kai Kai Technology, China) and a MFtC 5 was compared. Rat abdominal skins were obtained from the National University of Singapore Animal Centre and kept at −80° C. until use. Prior to the permeation studies, the skins were thawed and hair was completely removed with an electrical shaver and hair remover cream (Veet). Subcutaneous fat and connective tissues were also lightly trimmed off. All animal experiments were approved by Institutional Animal Care and Use Committee, National University of Singapore. A 2.0 cm×2.0 cm piece of rat abdominal skin was mounted between the donor and receptor compartments of the horizontal diffusion cell, with the stratum corneum side facing the donor compartment. The effective diffusion area was 1.13 cm^2. Each donor cell contained 4.5 ml of each model compound in propylene glycol (PG) and the receptor cell contained the same volume of PBS. Mangostin was used at a concentration of 2.3 mg/ml and rhodamine B at concentrations of 1 mg/ml and 5 mg/ml. Both compartments were thermostated at 37° C. by means of a surrounding temperature controlled water jacket. In order to minimize evaporation, all cell openings were occluded with parafilm. The fluids in both compartments were maintained in a stirred state by a Teflon coated magnetic stirrer at a speed of 250±1.25 rpm. Samples (1 ml) were withdrawn from the receptor compartment for analysis at specific time intervals. Upon each sample withdrawal, the receptor compartment was immediately replaced by an equal volume of fresh solution. The experiments were performed in triplicates or more. Skin samples from the same rat were used for comparisons between the horizontal diffusion cell and a MFtC 5 to minimise inter-animal variability. All experiments were performed at least three times. The samples were collected at the same time intervals and stored at 4° C. until analysis. During analysis, samples were first centrifuged at 13,000 rpm (Sorvall Biofuge Pico, UK) for 5 min. The supernatant was obtained and analyzed according to their respective assay methods as reported below. Concentration of rhodamine B was determined by fluorescence spectroscopy with a microplate reader (Tecan, Switzerland) at an excitation wavelength (λex)=554 nm and an emission wavelength (λem)=586 nm at ambient temperature. All samples were protected from light to prevent possible light quenching of fluorescence during the assay. Mangostin concentration was determined with a reversed phase HPLC (Hitachi, Japan) using a C18 column (5 μm, 4.6 mm×250 mm; ODS Hypersil, Thermo Scientific) maintained at ambient temperature. The mobile phase comprised of methanol and ultrapure water (90:10, v/v) delivered at a flow rate of 1 ml/min. The UV detector (L-2400, Hitachi, Japan) was operated at a λ=320 nm. Under these conditions, the mangostin peak appeared at a retention time of 6.8 min.

The conditions of data set [2]: cited from earlier work.
Data set [3] can be described thus: Permeation across rat abdominal skin in miniaturized flow-through cell (MFtC), validation. The class given is in vitro ADME. The method, then: To evaluate the performance characteristics of the MFtC 5, permeation of model compounds (rhodamine B and mangostin) using a horizontal diffusion cell (TK-6H1, Shanghai Kai Kai Technology, China) and a MFtC 5 was compared. Rat abdominal skins were obtained from the National University of Singapore Animal Centre and kept at −80° C. until use. Prior to the permeation studies, the skins were thawed and hair was completely removed with an electrical shaver and hair remover cream (Veet). Subcutaneous fat and connective tissues were also lightly trimmed off. All animal experiments were approved by Institutional Animal Care and Use Committee, National University of Singapore. Similar conditions were used in the MFtC 5 or MFtC 5 setup. A 1.0 cm×1.0 cm piece of rat abdominal skin was mounted between the donor compartment 220 and the receptor compartment 120 with the stratum corneum side facing the donor compartment 220 of the MFtC 5. In some embodiments, the area and shape of the skin/membrane of the present disclosure can be modified as needed or per application requirements. A sealant or sealing substance or material such as high vacuum grease (Dow Corning, USA) was applied to the donor compartment 220 on the unexposed stratum corneum side, in contact with the receptor compartment 120, to minimize leakage from the donor compartment 220. Other sealants, sealing substances, or high vacuum grease for minimizing leakage from the donor compartment 220 can be selected as needed or per application requirements. […] On the other hand, leakage of the donor solution could be observed when no grease was applied. In an embodiment of the present disclosure, the effective diffusion area was 0.283 cm^2. In some embodiments, the effective diffusion area can be about 0.283 cm^2 to about 0.5 cm^2. In an embodiment of the present disclosure, 70 μl of the donor solution was added into the donor compartment 220. In some embodiments, the volume of the donor solution added to the donor compartment 220 can be about 70 μl to about 300 μl. In an embodiment of the present disclosure, the receptor fluid or receptor solution comprised degassed PBS solution. In some embodiments, the receptor solution of the present disclosure can comprise other solutions such as water, buffers, extracellular fluid, lung lining fluid, gastric fluid, and/or cerebrospinal fluid. In an embodiment of the present disclosure, the flow rate of receptor solution through each diffusion cell 50 can be controlled by an infusion pump system 60, wherein the flow rate can be about 0.20 ml/hr. In some embodiments, the flow rate of receptor solution through each diffusion cell 50 can be reduced or increased to a flow rate of about 0.828 μl/hr to about 1270 ml/hr as needed or per application requirements. An embodiment of a MFtC 5 of the present disclosure was placed in a temperature controlling system such as a water bath 80 maintained at 37° C. using a hot plate to control the temperature. In some embodiments, the temperature can be adjusted as needed or per application requirements. In order to minimize evaporation, the donor compartment 220 and sampling container(s) 70 such as a sampling microfuge tube(s) 70 were occluded with parafilm. The sampling container(s) 70 such as a sampling tube(s) 70 was collected at specific time intervals and replaced by a sampling container(s) 70 such as an empty sampling tube(s) 70 for subsequent collections. The experiments were performed in triplicates or more. In some embodiments, the method of collecting the sample can be modified as needed or per application requirements. Skin samples from the same rat were used for comparisons between the horizontal diffusion cell and a MFtC 5 to minimise inter-animal variability. All experiments were performed at least three times. The samples were collected at the same time intervals and stored at 4° C. until analysis. During analysis, samples were first centrifuged at 13,000 rpm (Sorvall Biofuge Pico, UK) for 5 min. […]

For data set [4] the following is noted: endoxifen in 60% (v/v) ethanol-phosphate buffer with 0.5% (w/v) oleic acid; cited from earlier work.
The nature of data set [5]: Endoxifen permeation studies with MFtC, with or without permeation enhancers. It counts as in vitro ADME, rat. To be noted: for Flux / Lag time: MFtC, rat abdominal skin, mean ± SD, N = 3. Here is the method: A fluorescence assay for endoxifen was established whereby endoxifen was converted to highly fluorescent phenanthrene derivatives following exposure to ultraviolet (UV) irradiation. A UV transilluminator (Bio Rad, USA) at λ=302 nm and an intensity of 866 μW/cm^2 was used for the conversion of endoxifen to its phenanthrene derivatives. The fluorescence emitted from the phenanthrene derivatives of endoxifen after various durations of UV exposure was determined with a microplate reader at a λex=260 nm and a λem=380 nm. Fluorescence measurements from non-UV exposed samples served as a control. The optimum duration of UV irradiation was determined with a 10 μg/ml solution of endoxifen. For all subsequent experiments, this duration of UV irradiation was fixed at the optimal time. The validated MFtC 5 mounted with rat abdominal skin was employed to determine the permeation profile of endoxifen. Donor solutions comprised of endoxifen (2 mg/ml) in PG with and without permeation enhancers (PEs) namely limonene, myristyl lactate and oleic acid at 0.5% (w/v) were prepared. All solutions were sonicated for 3 min to ensure dissolution of endoxifen and PEs. Each donor compartment 220 was filled with 200 μl of donor solution. Endoxifen was allowed to permeate through the rat abdominal skin over 48 hr. The experiments were performed in triplicates. Samples of permeated solutions were collected at specific time intervals and stored at −20° C. until analysis. The flux at steady state (Jss) and lag time were obtained from the cumulative plots. The effect of the PEs on the flux was evaluated by calculating the enhancement index (EI). Independent sample t-test (IBM SPSS PASW Statistics 18) was used to compare the permeation parameters obtained from experiments involving horizontal diffusion cell and MFtC 5. For endoxifen permeation experiments, one-way analysis of variance (ANOVA) with Scheffe post hoc test was used for the comparison of the permeation parameters of endoxifen with or without the different PEs. For all tests, p<0.05 was considered significant.

Data set [6] is described as follows: Flux through rat skin translated to human skin. The class given is in vitro ADME. The following applies: translated from the rat skin flux of 6.52 μg/cm^2/hr; limonene as PE in PG.
[7] abbreviates: HDC, donor 1 mg/ml in propylene glycol, rat abdominal skin, mean ± SD.
The mark [8] stands for this setting: HDC, donor 5 mg/ml in propylene glycol, rat abdominal skin, mean ± SD.
Setting [9] is: MFtC, donor 1 mg/ml in propylene glycol, rat abdominal skin, mean ± SD.
Where [10] appears, read: MFtC, donor 5 mg/ml in propylene glycol, rat abdominal skin, mean ± SD.
Setting [11] is: ENX 2 mg/ml in PG alone (control).
[12] abbreviates: ENX 2 mg/ml in PG with limonene 0.5% (w/v).
Where [13] appears, read: ENX 2 mg/ml in PG with myristyl lactate 0.5% (w/v).
[14] abbreviates: ENX 2 mg/ml in PG with oleic acid 0.5% (w/v).

What is called log P is a log measure of how a compound divides between an organic and an aqueous phase. On to `CCN(CC)c1ccc2c(-c3ccccc3C(=O)O)c3ccc(=[N+](CC)CC)cc-3oc2c1.[Cl-]` [rhodamine B], for which the Flux was determined as 0.04 ± 0.03 μg/cm^2/hr in data set [1] (setting [7]), 0.07 ± 0.01 μg/cm^2/hr in data set [1] (setting [8]), 0.05 ± 0.02 μg/cm^2/hr in data set [3] (setting [9]) and 0.05 ± 0.02 μg/cm^2/hr in data set [3] (setting [10]). Besides, the Lag time was found to be 17.7 ± 3.47 h in data set [1] (setting [7]), 11.4 ± 3.31 h in data set [1] (setting [8]), 22.1 ± 4.07 h in data set [3] (setting [9]) and 8.35 ± 4.75 h in data set [3] (setting [10]). Also, the “log P” value in data set [2] was 2.43.

On to `CCCCCCCCCCCCCCOC(=O)C(C)O` (stereo not shown) [myristyl lactate], for which the lipophilicity (log P) in data set [2] is listed as 6.08.

For `COc1c(O)cc2oc3cc(O)c(CC=C(C)C)c(O)c3c(=O)c2c1CC=C(C)C` [mangostin, α-mangostin], the Flux in data set [1] (rat, 48 h, 2.3 mg/ml) is 7.06 ± 1.06 μg/cm^2/hr; in data set [3] (rat, 48 h, 2.3 mg/ml), 8.34 ± 3.40 μg/cm^2/hr. Besides, the Lag time amounted to 7.19 ± 0.47 h in data set [1] (rat, 48 h, 2.3 mg/ml) and 14.5 ± 2.71 h in data set [3] (rat, 48 h, 2.3 mg/ml). Besides, the “log P” value in data set [2] was 6.64.

For the compound `CC/C(=C(\c1ccc(O)cc1)c1ccc(OCCNC)cc1)c1ccccc1` [endoxifen], in data set [4], the “Highest flux reported (Jss)” value is given as 0.22 μg/cm^2/hr. Further, the Flux in data set [5] (setting [11]) was 0.65 ± 0.01 μg/cm^2/hr; in data set [5] (setting [12]), 6.52 μg/cm^2/hr; in data set [5] (ENX 2 mg/ml in PG with limonene 0.5% (w/v), listed as ENX), 6.52 ± 1.41 μg/cm^2/hr; in data set [5] (setting [13]), 5.33 ± 0.13 μg/cm^2/hr; in data set [5] (setting [14]) it was 4.09±1.07 μg/cm^2/hr; in data set [5] (ENX 2 mg/ml in PG with oleic acid 0.5% (w/v), listed as ENX), 4.09 ± 1.07 μg/cm^2/hr. Besides, the Lag time worked out at 1.03 ± 1.40 h in data set [5] (setting [11]), 3.75 ± 2.37 h in data set [5] (setting [12]), 7.62 ± 2.18 h in data set [5] (setting [13]) and 7.58 ± 4.04 h in data set [5] (setting [14]). For the same compound, the “Enhancement index (EI) = Jss (with enhancer)/Jss (without enhancer)” value was 9.99 in data set [5] (ENX in PG with limonene 0.5% (w/v) versus PG alone), 8.17 in data set [5] (ENX in PG with myristyl lactate 0.5% (w/v) versus PG alone) and 6.26 in data set [5] (ENX in PG with oleic acid 0.5% (w/v) versus PG alone). The “log P” value in data set [2] is given as 4.94. For the same compound, in data set [6], the “Flux through human skin” value is listed as 2.17 μg/cm^2/hr.

Consider `CC(O)CO` (stereo not shown) [propylene glycol], for which the “log P” value in data set [2] is −1.00.

For the compound `CCCCCCCC/C=C\CCCCCCCC(=O)O` [oleic acid], the lipophilicity (log P) in data set [2] is 7.42.

Regarding `C=C(C)[C@H]1CC=C(C)CC1` [limonene, (R)-(+)-limonene], the “log P” value in data set [2] was 4.83.
